Results from ChEMBL document CHEMBL3046208, “Natural and synthetic podolactones with potential use as natural herbicide models” (2000).
Activity calls are given as the source filed them. No cut-off for these calls is given here.

Experiments:
[1] = tested on: Hordeum vulgare; assay: Stimulation of root length of Hordeum vulgare (barley) at 0.1 mM after 5 days relative to untreated control; assay type: functional
[2] = tested on: Triticum aestivum; assay: Stimulation of shoot length of Triticum aestivum (wheat) at 0.1 mM after 5 days relative to untreated control; assay type: functional
[3] = tested on: Hordeum vulgare; assay: Stimulation of germination of Hordeum vulgare (barley) at 0.1 mM after 5 days relative to untreated control; assay type: functional
[4] = tested on: Triticum aestivum; assay: Stimulation of root length of Triticum aestivum (wheat) at 0.1 mM after 5 days relative to untreated control; assay type: functional
[5] = tested on: Triticum aestivum; assay: Stimulation of germination of Triticum aestivum (wheat) at 0.1 mM after 5 days relative to untreated control; assay type: functional
[6] = tested on: Allium cepa; assay: Stimulation of root length of Allium cepa (onion) at 0.1 mM after 5 days relative to untreated control; assay type: functional
[7] = tested on: Allium cepa; assay: Stimulation of shoot length of Allium cepa (onion) at 0.1 mM after 5 days relative to untreated control; assay type: functional
[8] = tested on: Allium cepa; assay: Stimulation of germination of Allium cepa (onion) at 0.1 mM after 5 days relative to untreated control; assay type: functional
[9] = tested on: Solanum lycopersicum; assay: Stimulation of shoot length of Solanum lycopersicum (tomato) at 0.1 mM after 5 days relative to untreated control; assay type: functional
[10] = tested on: Solanum lycopersicum; assay: Stimulation of root length of Solanum lycopersicum (tomato) at 0.1 mM after 5 days relative to untreated control; assay type: functional
[11] = tested on: Solanum lycopersicum; assay: Stimulation of germination of Solanum lycopersicum (tomato) at 0.1 mM after 5 days relative to untreated control; assay type: functional
[12] = tested on: Lepidium sativum; assay: Stimulation of shoot length of Lepidium sativum at 0.1 mM after 5 days relative to untreated control; assay type: functional
[13] = tested on: Lepidium sativum; assay: Stimulation of root length of Lepidium sativum at 0.1 mM after 5 days relative to untreated control; assay type: functional
[14] = tested on: Lactuca sativa; assay: Stimulation of shoot length of Lactuca sativa cv. Roman (lettuce) at 0.1 mM after 5 days relative to untreated control; assay type: functional
[15] = tested on: Lepidium sativum; assay: Stimulation of germination of Lepidium sativum at 0.1 mM after 5 days relative to untreated control; assay type: functional
[16] = tested on: Lactuca sativa; assay: Stimulation of root length of Lactuca sativa cv. Roman (lettuce) at 0.1 mM after 5 days relative to untreated control; assay type: functional
[17] = tested on: Lactuca sativa; assay: Stimulation of germination of Lactuca sativa cv. Roman (lettuce) at 0.1 mM after 5 days relative to untreated control; assay type: functional
[18] = tested on: Lactuca sativa; assay: Stimulation of shoot length of Lactuca sativa cv. Nigra (lettuce) at 0.1 mM after 5 days relative to untreated control; assay type: functional
[19] = tested on: Lactuca sativa; assay: Stimulation of root length of Lactuca sativa cv. Nigra (lettuce) at 0.1 mM after 5 days relative to untreated control; assay type: functional
[20] = tested on: Lactuca sativa; assay: Stimulation of germination of Lactuca sativa cv. Nigra (lettuce) at 0.1 mM after 5 days relative to untreated control; assay type: functional
[21] = tested on: Triticum aestivum; assay: Inhibition of shoot length of Triticum aestivum (wheat) at 0.1 mM after 5 days relative to untreated control; assay type: functional
[22] = tested on: Hordeum vulgare; assay: Inhibition of germination of Hordeum vulgare (barley) at 0.1 mM after 5 days relative to untreated control; assay type: functional; details: 120 h
[23] = tested on: Hordeum vulgare; assay: Inhibition of root length of Hordeum vulgare (barley) at 0.1 mM after 5 days relative to untreated control; assay type: functional; details: 120 h
[24] = tested on: Hordeum vulgare; assay: Stimulation of shoot length of Hordeum vulgare (barley) at 0.1 mM after 5 days relative to untreated control; assay type: functional
[25] = tested on: Lactuca sativa; assay: Inhibition of germination of Lactuca sativa cv. Nigra (lettuce) at 0.1 mM after 5 days relative to untreated control; assay type: functional; details: 120 h
[26] = tested on: Lactuca sativa; assay: Inhibition of root length of Lactuca sativa cv. Nigra (lettuce) at 0.1 mM after 5 days relative to untreated control; assay type: functional
[27] = tested on: Lactuca sativa; assay: Inhibition of shoot length of Lactuca sativa cv. Nigra (lettuce) at 0.1 mM after 5 days relative to untreated control; assay type: functional; details: 120 h
[28] = tested on: Hordeum vulgare; assay: Inhibition of shoot length of Hordeum vulgare (barley) at 10 uM after 5 days relative to untreated control; assay type: functional, organism-based
[29] = tested on: Triticum aestivum; assay: Inhibition of shoot length of Triticum aestivum (wheat) at 10 uM after 5 days relative to untreated control; assay type: functional, organism-based
[30] = tested on: Hordeum vulgare; assay: Inhibition of root length of Hordeum vulgare (barley) at 10 uM after 5 days relative to untreated control; assay type: functional, organism-based
[31] = tested on: Allium cepa; assay: Inhibition of shoot length of Allium cepa (onion) at 10 uM after 5 days relative to untreated control; assay type: functional; details: 120 h
[32] = tested on: Triticum aestivum; assay: Inhibition of root length of Triticum aestivum (wheat) at 10 uM after 5 days relative to untreated control; assay type: functional; details: 120 h
[33] = tested on: Allium cepa; assay: Inhibition of root length of Allium cepa (onion) at 10 uM after 5 days relative to untreated control; assay type: functional; details: 120 h
[34] = tested on: Solanum lycopersicum; assay: Inhibition of shoot length of Solanum lycopersicum (tomato) at 1 uM after 5 days relative to untreated control; assay type: functional; details: 120 h
[35] = tested on: Lepidium sativum; assay: Stimulation of shoot length of Lepidium sativum at 1 uM after 5 days relative to untreated control; assay type: functional
[36] = tested on: Solanum lycopersicum; assay: Inhibition of root length of Solanum lycopersicum (tomato) at 1 uM after 5 days relative to untreated control; assay type: functional; details: 120 h
[37] = tested on: Lepidium sativum; assay: Stimulation of root length of Lepidium sativum at 1 uM after 5 days relative to untreated control; assay type: functional
[38] = tested on: Solanum lycopersicum; assay: Inhibition of shoot length of Solanum lycopersicum (tomato) at 10 uM after 5 days relative to untreated control; assay type: functional, organism-based
[39] = tested on: Lactuca sativa; assay: Inhibition of germination of Lactuca sativa cv. Roman (lettuce) at 0.1 mM after 5 days relative to untreated control; assay type: functional
[40] = tested on: Lactuca sativa; assay: Inhibition of root length of Lactuca sativa cv. Roman (lettuce) at 0.1 mM after 5 days relative to untreated control; assay type: functional
[41] = tested on: Lactuca sativa; assay: Inhibition of shoot length of Lactuca sativa cv. Roman (lettuce) at 0.1 mM after 5 days relative to untreated control; assay type: functional
[42] = tested on: Lepidium sativum; assay: Inhibition of germination of Lepidium sativum at 0.1 mM after 5 days relative to untreated control; assay type: functional
[43] = tested on: Lepidium sativum; assay: Inhibition of root length of Lepidium sativum at 0.1 mM after 5 days relative to untreated control; assay type: functional; details: 120 h
[44] = tested on: Lepidium sativum; assay: Inhibition of shoot length of Lepidium sativum at 0.1 mM after 5 days relative to untreated control; assay type: functional; details: 120 h
[45] = tested on: Solanum lycopersicum; assay: Inhibition of germination of Solanum lycopersicum (tomato) at 0.1 mM after 5 days relative to untreated control; assay type: functional
[46] = tested on: Solanum lycopersicum; assay: Inhibition of root length of Solanum lycopersicum (tomato) at 0.1 mM after 5 days relative to untreated control; assay type: functional; details: 120 h
[47] = tested on: Solanum lycopersicum; assay: Inhibition of shoot length of Solanum lycopersicum (tomato) at 0.1 mM after 5 days relative to untreated control; assay type: functional; details: 120 h
[48] = tested on: Allium cepa; assay: Inhibition of germination of Allium cepa (onion) at 0.1 mM after 5 days relative to untreated control; assay type: functional; details: 120 h
[49] = tested on: Allium cepa; assay: Inhibition of root length of Allium cepa (onion) at 0.1 mM after 5 days relative to untreated control; assay type: functional
[50] = tested on: Allium cepa; assay: Inhibition of shoot length of Allium cepa (onion) at 0.1 mM after 5 days relative to untreated control; assay type: functional; details: 120 h
[51] = tested on: Triticum aestivum; assay: Inhibition of germination of Triticum aestivum (wheat) at 0.1 mM after 5 days relative to untreated control; assay type: functional; details: 120 h
[52] = tested on: Triticum aestivum; assay: Inhibition of root length of Triticum aestivum (wheat) at 0.1 mM after 5 days relative to untreated control; assay type: functional; details: 120 h
[53] = tested on: Solanum lycopersicum; assay: Inhibition of root length of Solanum lycopersicum (tomato) at 10 uM after 5 days relative to untreated control; assay type: functional, organism-based
[54] = tested on: Solanum lycopersicum; assay: Inhibition of germination of Solanum lycopersicum (tomato) at 10 uM after 5 days relative to untreated control; assay type: functional, organism-based
[55] = tested on: Lepidium sativum; assay: Inhibition of shoot length of Lepidium sativum at 10 uM after 5 days relative to untreated control; assay type: functional, organism-based
[56] = tested on: Lepidium sativum; assay: Inhibition of root length of Lepidium sativum at 10 uM after 5 days relative to untreated control; assay type: functional, organism-based
[57] = tested on: Lepidium sativum; assay: Inhibition of germination of Lepidium sativum at 10 uM after 5 days relative to untreated control; assay type: functional, organism-based
[58] = tested on: Hordeum vulgare; assay: Inhibition of shoot length of Hordeum vulgare (barley) at 0.1 mM after 5 days relative to untreated control; assay type: functional; details: 120 h
[59] = tested on: Solanum lycopersicum; assay: Stimulation of root length of Solanum lycopersicum (tomato) at 0.1 uM after 5 days relative to untreated control; assay type: functional

## CO[C@@H]1OC(=O)C=C2C1=C[C@H]1OC(=O)[C@@]3(C)CCC[C@@]2(C)[C@@H]13
[1]
  Activity: >40%
[2]
  Activity: >40%
[3]
  Activity: >40%
[4]
  Activity: >40%
[5]
  Activity: >40%
[6]
  Activity: >40%
[7]
  Activity: >40%
[8]
  Activity: >40%
[9]
  Activity: >40%
[10]
  Activity: >40%
[11]
  Activity: >40%
[12]
  Activity: >40%
[13]
  Activity: >40%
[14]
  Activity: >40%
[15]
  Activity: >40%
[16]
  Activity: >40%
[17]
  Activity: >40%
[18]
  Activity: >40%
[19]
  Activity: >40%
[20]
  Activity: 20%
[21]; 120 h
  inhibition at 100 µM: > 40%
[22]
  inhibition at 100 µM: > 40%
[23]
  inhibition at 100 µM: > 40%
[24]
  Activity: >40%
[25]
  inhibition at 100 µM: 20%
[26]; 120 h
  inhibition at 100 µM: > 40%
[27]
  inhibition at 100 µM: > 40%
[28]
  inhibition: inactive
[29]
  inhibition: inactive
[30]
  inhibition: inactive
[31]
  inhibition at 10 µM: -74%
[32]
  inhibition at 10 µM: -42%
[33]
  inhibition at 10 µM: -54%
[34]
  inhibition at 1 µM: -44%
[35]
  Activity: -73%
[36]
  inhibition at 1 µM: -45%
[37]
  Activity: -44%
[38]
  inhibition: Active
[39]; 120 h
  inhibition at 100 µM: > 40%
[40]; 120 h
  inhibition at 100 µM: > 40%
[41]; 120 h
  inhibition at 100 µM: > 40%
[42]; 120 h
  inhibition at 100 µM: > 40%
[43]
  inhibition at 100 µM: > 40%
[44]
  inhibition at 100 µM: > 40%
[45]; 120 h
  inhibition at 100 µM: > 40%
[46]
  inhibition at 100 µM: > 40%
[47]
  inhibition at 100 µM: > 40%
[48]
  inhibition at 100 µM: > 40%
[49]; 120 h
  inhibition at 100 µM: > 40%
[50]
  inhibition at 100 µM: > 40%
[51]
  inhibition at 100 µM: > 40%
[52]
  inhibition at 100 µM: > 40%
[53]
  inhibition: Active
[54]
  inhibition: Active
[55]
  inhibition: Active
[56]
  inhibition: Active
[57]
  inhibition: Active
[58]
  inhibition at 100 µM: > 40%

## COC(=O)[C@@]1(C)CCC[C@]2(C)c3cc(=O)occ3CC[C@@H]12
[1]
  Activity: 20%
[2]
  Activity: inactive
[3]
  Activity: 20%
[4]
  Activity: <20%
[5]
  Activity: <20%
[6]
  Activity: inactive
[7]
  Activity: <20%
[8]
  Activity: <20%
[9]
  Activity: <20%
[10]
  Activity: >40%
[11]
  Activity: inactive
[12]
  Activity: <20%
[13]
  Activity: 20%
[14]
  Activity: inactive
[15]
  Activity: inactive
[16]
  Activity: inactive
[17]
  Activity: inactive
[18]
  Activity: <20%
[19]
  Activity: inactive
[20]
  Activity: <20%
[21]
  inhibition: inactive
[22]
  inhibition at 100 µM: 20%
[23]
  inhibition at 100 µM: 20%
[24]
  Activity: <20%
[25]
  inhibition at 100 µM: < 20%
[26]
  inhibition: inactive
[27]
  inhibition at 100 µM: < 20%
[59]
  Activity: 58%
[39]
  inhibition: inactive
[40]
  inhibition: inactive
[41]
  inhibition: inactive
[42]
  inhibition: inactive
[43]
  inhibition at 100 µM: 20%
[44]
  inhibition at 100 µM: < 20%
[45]
  inhibition: inactive
[46]
  inhibition at 100 µM: > 40%
[47]
  inhibition at 100 µM: < 20%
[48]
  inhibition at 100 µM: < 20%
[49]
  inhibition: inactive
[50]
  inhibition at 100 µM: < 20%
[51]
  inhibition at 100 µM: < 20%
[52]
  inhibition at 100 µM: < 20%
[58]
  inhibition at 100 µM: < 20%
